This note sets out measurements from patent US20120316203A1, “Compositions and Methods for Inhibition of Cancers” (THE OHIO STATE UNIVERSITY RESEARCH FOUNDATION, priority 2009, published 2012).

The subject of data set [1] is A2780R, PA-1, SKOV3, OV4, and OVCAR3 human ovarian cancer cell lines. In words: Cell viability by MTT assay, other ovarian cancer cell lines. It is filed as cell-based. The conditions noted are these: 10 μmol/L; 24 h. As to the method: Cell viability was determined by a colorimetric assay using MTT. In the mitochondria of living cells, yellow MTT undergoes a reductive conversion to formazan, producing a purple color. Cells, grown to […] confluence in 75-mm flasks, were trypsinized, counted, seeded in 96-well plates with an average population of 7,000 cells per well, incubated overnight, and then treated with curcumin, H-4073, or HO-3867 for 24 hours. All experiments were done using eight replicates and, repeated at least thrice.
(In general: Tetrazolium assays rely on reduction of a dye to a coloured formazan, in cell work by metabolically active cells.)

For data set [2], the system named is Bcl-xL, Bcl-2, survivin, VEGF, and cyclin D1 in A2780 cells. In words: Western blot of STAT3 target proteins. It is filed as cell-based, human. As to conditions: 10 and 20 μmol/L, 24-hour exposure. As to the method:
Equal volumes of DMSO (0.1% v/v) were present in each treatment. Following treatment, the cell lysates were prepared in non-denaturing lysis buffer containing 10 mmol/L Tris-HCl (pH 7.4), 150 mmol/L NaCl, 1% Triton X-100, 1 mmol/L EDTA, 1 mmol/L EGTA, 0.3 mmol/L phenylmethyl-sulfonyl fluoride, 0.2 mmol/L sodium orthovanadate, 0.5% NP40, 1 μg/mL aprotinin, and 1 μg/mL leupetin. The lysates were centrifuged at 10,000×g for 20 minutes at 4° C. and the supernatant was separated. The protein concentration in the lysates was determined using a Pierce detergent-compatible protein assay kit. For Western blotting, 25 to 50 μg of protein lysate per sample were denatured in 2×SDS-PAGE sample buffer and subjected to SDS-PAGE on a 10% tris-glycine gel. The separated proteins were transferred to a polyvinylidene fluoride membrane and were blocked with 5% nonfat milk powder (w/v) in TBST (10 mmol/L Tris, 10 mmol/L NaCl, 0.1% Tween 20) for 1 hour at room temperature or overnight at 4° C. The membranes were then incubated with the primary antibodies. The bound antibodies were detected with horseradish peroxidase-labeled sheep anti-mouse IgG or horseradish peroxidase-labeled donkey anti-rabbit IgG using an enhanced chemiluminescence detection system (ECL Advanced kit). Protein expressions were determined using the Image Gauge v. 3.45 software. […]
(In general: A western blot detects proteins with antibodies after separation by electrophoresis.)

Data set [3] has as its system A2780 human ovarian tumor xenograft. In words: Ovarian cancer tumor xenografts in mice, tumor growth. It is filed as in vivo, BALB/c nude mice. As to conditions: 25, 50, and 100 ppm in feed, 5 weeks; dose-dependent, 50 and 100 ppm more effective. The method, then: Cultured A2780 cancer cells (2×10^6 cells in […] of PBS) were s.c. injected into the back of 6-week-old BALB/c nude mice from the National Cancer Institute. Five to 7 days later, when the tumors reached 3 to 5 mm in diameter, the mice were divided (n=9/group) in a manner to equalize the mean tumor diameter among the groups. The control group was given a normal diet (no treatment), whereas the experimental groups were treated using the DAP compounds mixed with the animal feed (Harlan Teklad) at three different levels (25, 50, and 100 ppm). The doses were chosen based on an initial dose-response study optimized to produce an observable effect on tumor growth. The size of the tumor was measured twice per week using a digital Vernier caliper. The tumor volume was determined from the orthogonal dimensions (d1, d2, d3) using the formula (d1×d2×d3)×π/6. Thirty five days after the beginning of HO-3867 treatment, the mice were sacrificed and the tumors were resected. The tumor tissues were then subjected to immunoblot analysis.

The test system of a further data set is HSMC. The experiment in a line: Intracellular ROS by DCF fluorescence, HSMC. The conditions noted are these: 10 μM, 12 h. It is filed as cell-based, human. The method, then: The ROS levels in cells treated with DAPs were determined using H2DCF-DA, a membrane-permeative fluorogenic probe. The acetate and acetoxymethyl ester groups of this probe are enzymatically cleaved inside living cells. The probe can then be oxidized by intracellular oxidants (ROS) to give a product, DCF, which emits a strong, green fluorescence (λex=504 nm; λem=529 nm). The fluorescence intensity is proportional to the level of cellular oxidants. […] The cells were further incubated in the dark for 20 min and washed with protein-free medium, and then fluorescence images were immediately captured with a Nikon Eclipse TE2000-U camera system using excitation/emission at 495/520 nm. The captured images were then analyzed using MetaMorph image analysis software.

The test system of data set [4] is A2780 xenograft tumor tissues. In words: FAS/FAK and VEGF levels in xenograft tumor tissues (immunoblot, immunohistochemistry). It is filed as in vivo, BALB/c nude mice. The method, then:
A2780 cells (5×10^6 cells in 60 μl of PBS) were subcutaneously (s.c.) injected into the back of 6-week-old BALB/c nude mice from the National Cancer Institute. On the 5th day when the tumor size reached approximately 2 to 4 mm, the control groups was supplemented a normal diet (no treatment) while the experimental groups were treated using the DAP compounds mixed with the animal feed ([…]). The doses were chosen based on an initial dose-response study optimized to produce an observable effect on tumor growth. The tumor tissues were then subjected to immunoblotting and immunohistochemistry.
Tumor tissues were fixed in formalin and embedded in paraffin. Sections (6-μm thick) were obtained and used for hematoxylin and eosin staining. For immunofluorescence staining, the tissue sections (8-μm thick) were serially rehydrated in 100%, 95%, and 80% ethanol after deparaffinization with xylene. Slides were kept in steam for 30 min and then washed in PBS (pH 7.4) three times for 5 min each. Tissue sections were incubated with 2% goat serum and 5% bovine serum albumin in PBS to reduce nonspecific binding. The sections were then incubated for 4 h with an anti-mouse anti-FAS, or anti-VEGF. The sections were then incubated with secondary antibodies (1:1000 dilutions) conjugated to horseradish peroxidase (HRP)-labeled sheep anti-mouse IgG or HRP-labeled donkey anti-rabbit IgG (Amersham Pharmacia Biotech). The tissue slides were visualized using a Nikon fluorescence microscope.

The mark [5] stands for this setting: 50 or 100 ppm in feed, dose-dependent.

The structures appear in SMILES notation.

`CC1(C)C=C(CN2C/C(=C\c3ccc(F)cc3)C(=O)/C(=C/c3ccc(F)cc3)C2)C(C)(C)N1O` [HO-3867, 1-[(1-oxyl-2,2,5,5-tetramethyl-2,5-dihydro-1H-pyrrol-3-yl)methyl]-(3E,5E)-3,5-bis(4-fluorobenzylidene)piperidin-4-one]: in data set [1], the “cytotoxicity in other human ovarian cancer cell lines” value was “equally and significantly toxic”. In data set [2], the “Bcl-xL, Bcl-2, survivin, and VEGF levels” value is listed as “clear reduction”; the “cyclin D1 level” value is reported as “no significant change”. The tumor volume result in data set [3] is “significant reduction”. Moreover, in the data set with HSMC, the “amounts of ROS in HSMC compared to A2780 cells” value is “significantly lower amounts of ROS” and the “intracellular ROS generation (DCF fluorescence) in HSMC” value is “not significantly different from that of the untreated cells”. For the same molecule, in data set [4] (setting [5]), the “SREBP1, MMP-2, and VEGF in xenografted tumor tissues” value is given as “clear down-regulation”; the “expression of FAS and FAK in xenografted tumor tissues” value is “decreased expression”. Besides, in data set [4] (mouse, in vivo), the “protein levels of FAS and VEGF by immunocytochemistry in tumor-bearing mice” value is reported as “significantly inhibited”.
